{
  "source": "the supplement of paper PMC10307832",
  "test_in_all_cases": "relative viability (nuclei count vs DMSO), 5 days (fraction); higher = more cells survive",
  "key": {"Idelalisib + Vorinostat": {"compound": "CC[C@H](Nc1ncnc2[nH]cnc12)c1nc2cccc(F)c2c(=O)n1-c1ccccc1 [Idelalisib] + O=C(CCCCCCC(=O)Nc1ccccc1)NO [Vorinostat] (partner 1 µM)", "procedure,_shortened": "(§1)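 Values are medians from duplicate plates. Each reflects relative viability, defined as the nuclei count of treated wells over that of vehicle wells. Lung cancer cell lines in 1536-well plates were pin-tool dosed one day after seeding with one drug alone or with a fixed anchor-drug dose plus five library-drug doses (not always all listed) in √10 steps, then fixed, stained and imaged at 4× after 5 days.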"}, "Idelalisib + Pictilisib": {"compound": "CC[C@H](Nc1ncnc2[nH]cnc12)c1nc2cccc(F)c2c(=O)n1-c1ccccc1 [Idelalisib] + CS(=O)(=O)N1CCN(Cc2cc3nc(-c4cccc5[nH]ncc45)nc(N4CCOCC4)c3s2)CC1 [Pictilisib] (partner 1 µM)", "procedure,_shortened": "as §1"}, "Idelalisib + Crizotinib": {"compound": "CC[C@H](Nc1ncnc2[nH]cnc12)c1nc2cccc(F)c2c(=O)n1-c1ccccc1 [Idelalisib] + C[C@@H](Oc1cc(-c2cnn(C3CCNCC3)c2)cnc1N)c1c(Cl)ccc(F)c1Cl [Crizotinib] (partner 1 µM)", "procedure,_shortened": "as §1"}, "Pemetrexed + Trametinib": {"compound": "Nc1nc2[nH]cc(CCc3ccc(C(=O)N[C@@H](CCC(=O)O)C(=O)O)cc3)c2c(=O)[nH]1 [Pemetrexed] + CC(=O)Nc1cccc(-n2c(=O)n(C3CC3)c(=O)c3c(Nc4ccc(I)cc4F)n(C)c(=O)c(C)c32)c1 [Trametinib] (partner 0.02 µM)", "procedure,_shortened": "as §1"}},
  "data": [
    {"cell line": "UMC-11", "values": [
      {"measurement": "relative viability", "setting": "Idelalisib + Vorinostat; first compound 0.04 µM", "result": 0.474},
      {"measurement": "relative viability", "setting": "Idelalisib + Vorinostat; first compound 0.1265 µM", "result": 0.392},
      {"measurement": "relative viability", "setting": "Idelalisib + Vorinostat; first compound 0.4 µM", "result": 0.363},
      {"measurement": "relative viability", "setting": "Idelalisib + Vorinostat; first compound 1.265 µM", "result": 0.437},
      {"measurement": "relative viability", "setting": "Idelalisib + Vorinostat; first compound 4 µM", "result": 0.358},
      {"measurement": "relative viability", "setting": "Idelalisib + Pictilisib; first compound 0.04 µM", "result": 0.939},
      {"measurement": "relative viability", "setting": "Idelalisib + Pictilisib; first compound 0.1265 µM", "result": 0.744},
      {"measurement": "relative viability", "setting": "Idelalisib + Pictilisib; first compound 0.4 µM", "result": 0.778},
      {"measurement": "relative viability", "setting": "Idelalisib + Pictilisib; first compound 1.265 µM", "result": 0.939},
      {"measurement": "relative viability", "setting": "Idelalisib + Pictilisib; first compound 4 µM", "result": 0.865},
      {"measurement": "relative viability", "setting": "Idelalisib + Crizotinib; first compound 0.04 µM", "result": 0.708},
      {"measurement": "relative viability", "setting": "Idelalisib + Crizotinib; first compound 0.1265 µM", "result": 0.694},
      {"measurement": "relative viability", "setting": "Idelalisib + Crizotinib; first compound 0.4 µM", "result": 0.583},
      {"measurement": "relative viability", "setting": "Idelalisib + Crizotinib; first compound 1.265 µM", "result": 0.541},
      {"measurement": "relative viability", "setting": "Idelalisib + Crizotinib; first compound 4 µM", "result": 0.57},
      {"measurement": "relative viability", "setting": "Pemetrexed + Trametinib; first compound 0.002 µM", "result": 0.659},
      {"measurement": "relative viability", "setting": "Pemetrexed + Trametinib; first compound 0.006325 µM", "result": 0.663},
      {"measurement": "relative viability", "setting": "Pemetrexed + Trametinib; first compound 0.02 µM", "result": 0.819},
      {"measurement": "relative viability", "setting": "Pemetrexed + Trametinib; first compound 0.06325 µM", "result": 0.655},
      {"measurement": "relative viability", "setting": "Pemetrexed + Trametinib; first compound 0.2 µM", "result": 0.619}
    ]}
  ]
}
